Laboratory results reported in the supplement of paper PMC10307832.

What was measured:
Experiment in all cases: relative viability (nuclei count vs DMSO), 5 days (fraction); higher = more cells survive
Adavosertib + Vorinostat = compound: C=CCn1c(=O)c2cnc(Nc3ccc(N4CCN(C)CC4)cc3)nc2n1-c1cccc(C(C)(C)O)n1 [Adavosertib] + O=C(CCCCCCC(=O)Nc1ccccc1)NO [Vorinostat] (partner 1 µM)
Summary of the method: (§1)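 Lung cancer cell lines were pin-tool dosed in 1536-well plates on the day after seeding, with either a lone drug or a fixed anchor-drug dose plus five library-drug doses (not always all listed) in √10 steps. Nuclei were counted on 4× images after 5 days. Relative viability is the ratio of treated-well to vehicle-well nuclei counts, with each value a median of duplicate plates.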

Nelarabine + Phenformin = compound: COc1nc(N)nc2c1ncn2[C@@H]1O[C@H](CO)[C@@H](O)[C@@H]1O [Nelarabine] + N=C(N)NC(=N)NCCc1ccccc1 [Phenformin] (partner 250 µM)
Summary of the method: as §1

Nelarabine + AZD7762 = compound: COc1nc(N)nc2c1ncn2[C@@H]1O[C@H](CO)[C@@H](O)[C@@H]1O [Nelarabine] + NC(=O)Nc1cc(-c2cccc(F)c2)sc1C(=O)N[C@H]1CCCNC1 [AZD7762] (partner 0.2 µM)
Summary of the method: as §1

Adavosertib + Bortezomib = compound: C=CCn1c(=O)c2cnc(Nc3ccc(N4CCN(C)CC4)cc3)nc2n1-c1cccc(C(C)(C)O)n1 [Adavosertib] + CC(C)C[C@H](NC(=O)[C@H](Cc1ccccc1)NC(=O)c1cnccn1)B(O)O [Bortezomib] (partner 0.002 µM)
Summary of the method: as §1

Cell Line	relative viability (Adavosertib + Vorinostat; first compound 0.01 µM)	relative viability (Adavosertib + Vorinostat; first compound 0.03162 µM)	relative viability (Adavosertib + Vorinostat; first compound 0.1 µM)	relative viability (Adavosertib + Vorinostat; first compound 0.3162 µM)	relative viability (Nelarabine + Phenformin; first compound 0.01 µM)	relative viability (Nelarabine + Phenformin; first compound 0.03162 µM)	relative viability (Nelarabine + Phenformin; first compound 0.1 µM)	relative viability (Nelarabine + Phenformin; first compound 0.3162 µM)	relative viability (Nelarabine + Phenformin; first compound 1 µM)	relative viability (Nelarabine + AZD7762; first compound 0.01 µM)	relative viability (Nelarabine + AZD7762; first compound 0.03162 µM)	relative viability (Nelarabine + AZD7762; first compound 0.1 µM)	relative viability (Nelarabine + AZD7762; first compound 0.3162 µM)	relative viability (Nelarabine + AZD7762; first compound 1 µM)	relative viability (Adavosertib + Bortezomib; first compound 0.01 µM)	relative viability (Adavosertib + Bortezomib; first compound 0.03162 µM)	relative viability (Adavosertib + Bortezomib; first compound 0.1 µM)	relative viability (Adavosertib + Bortezomib; first compound 0.3162 µM)
NCI-H2342	0.679	0.833	0.741	0.864	0.554	0.522	0.503	0.67	0.566	0.508	0.5	0.439	0.555	0.464				
NCI-H838	0.706	0.694	0.701	0.67	0.701	0.549	0.608	0.595	0.628	1.04	0.847	0.955	1	0.957	0.993	0.946	0.754	0.824
NCI-H522	0.875	0.968	1.02	0.871	0.727	0.661	0.594	0.716	0.728	0.844	1.02	0.813	0.86	0.949				
CAL-12T	0.797	0.889	0.821	0.741	0.664	0.575	0.533	0.582	0.621	0.721	0.642	0.685	0.58	0.561		0.817	0.946	0.68
NCI-H1755	0.935	0.864	0.682	0.546	0.63	0.548	0.547	0.659	0.619	0.473	0.455	0.425	0.516	0.474	0.965	0.905	1.01	1.03
LCLC-103H	0.834	0.78	0.755	0.739	0.329	0.283	0.333	0.328	0.345	0.829	0.75	0.71	0.855	0.838	1.03	1.1	1.05	1.08
IA-LM		0.904	1.07	1.12											0.899	0.989	0.893	0.774
SK-LU-1	0.734	0.831	0.666	0.453	0.564	0.364	0.553	0.679	0.499						1.07	1.29	1.16	0.479
Calu-6															0.93	1.01	1.05	0.386
COR-L23	0.486	0.406	0.386	0.166	0.525	0.385	0.356	0.416	0.448						0.976	1.03	0.95	0.546
NCI-H2228		0.606	0.536	0.294	0.434	0.244		0.345	0.293						0.875	0.941	0.818	0.358
NCI-H1944	0.541	0.531	0.563	0.369	0.209	0.195	0.229	0.195	0.203	0.534	0.4	0.421	0.44	0.485				
